# Measured values from US11026888B1, “Functional beverage compositions and methods of using and making same” (Nutrition Therapeutics, Inc., priority 2019, dated 2021).
# Columns and labels:
# [1] = dissolving of CBD within pomegranate seed oil; type: physicochemical; conditions: even at refrigeration temperatures
# Excerpt: (§1) For broad-based consumer success, it is desirable that a functional beverage product consistent in flavor, quality, and mouthfeel be manufacturable using an easily replicated process, and be food-safe. Immiscible components can result in material floating on the surface of the beverage, wherein the immiscible materials can shelter can promote the growth of contaminating organisms or provide localized regions survivable from pasteurizing temperatures. Additionally, such immiscible components can become a choking hazard to the unaware consumer. Non-polar compounds mix well with other non-polar compounds.
# [2] = vigorous mixing with water: miscibility / solubility; type: physicochemical; conditions: mixed vigorously
# Excerpt: Over time, the non-polar compounds will aggregate together and fall out of aqueous suspension. […] Beverages manufactured with only polar and non-polar substances would behave and result in a composition having an immiscible and undesirable tactile quality; pomegranate seed oil mixed with water is likely to result in a fatty or oily layer on top of the water, or with CBD, the water surface peppered with crystalline flakes. In most cases, the non-polar components are likely to adhere to the sides of the container.
# as §1
compound,measurement,setting,value
"C=C(C)[C@@H]1CCC(C)=C[C@H]1c1c(O)cc(CCCCC)cc1O [CBD, cannabidiol]",dissolving within pomegranate seed oil,[1],successful dissolving
same,behaviour in water after vigorous mixing,[2],non-dissolving solid
